Experimental data reported in patent US20180185414A1, “CALCIUM SALT COMPOSITION AND FILAGGRIN PRODUCTION PROMOTER USING THE SAME” (NISSAN CHEMICAL INDUSTRIES, LTD., priority 2015, published 2018).

Columns and labels:
[1] = tested on: filaggrin production in human skin keratinocytes (NHEK); assay: Filaggrin production test (A): fluorescent immunostaining with Anti-FLG; format: cell-based; settings: for Increase rate of brightness: overnight, relative to Lcell of Comparative Test Example 2 (no calcium salt added = 100); for Brightness/Cell number (Lcell): incubated overnight
Procedure: Various calcium salts were dispersed in water so that the concentration calculated in terms of calcium ion would be 0.89 M, this obtained dispersed solution was then sterilized in an autoclave (at 120° C. for 20 minutes), and thereby various calcium salt stock dispersed solutions were prepared.
Then, according to Table 11, each calcium salt stock aqueous dispersed solution was added to a medium (manufactured by KURABO […] LTD., HuMedia-KG2) while pipetting so that that a predetermined supplemented concentration calculated in terms of calcium ion would be obtained, and thereby a calcium salt supplemented medium was prepared.
On a culture plate of 24-wells to which the same medium as used in the preparation of the above-mentioned calcium salt supplemented medium was added, human skin keratinocytes (manufactured by KURABO […] LTD., NHEK) were inoculated so that the cell density would be 3,800 cells/cm^2, and this was cultured for 3 days (37° C., 5% CO2). Then, this medium was exchanged with the calcium salt supplemented medium prepared as mentioned above and incubated for overnight (37° C., 5% CO2).
Whether filaggrin is produced by a calcium salt was examined using fluorescent immunostaining methods by Anti-Filaggrin/FLG, Rabbit-Poly, Alexa Fluor 488 (manufactured by BIS, hereinafter referred to as “Anti-FLG” as well). Moreover, for comparing the staining, DAPI (4′,6-diamidino-2-phenylindole dihydrochloride, manufactured by Wako Pure Chemical Industries, Ltd) was used to stain the nucleus.
That is to say that the above-mentioned incubated cells for overnight were washed with PBS and fixed with 4% paraformaldehyde solution (manufactured by Wako Pure Chemical Industries, Ltd). The fixed cells were permeabilized with 0.1% Triton-X 100, incubated for overnight with Anti-FLG PBS solution (×50) at 4° C., and then stained with a PBS solution of 100 nM DAPI. Note that the cells were washed with PBS after every operation.
For calculating the relative production amount of filaggrin, a fluorescent microscopic image of the above-mentioned stained cells was taken. The brightness of the image was quantified using Photoshop CS3, and this was normalized by dividing the obtained numerical value with cell numbers (Brightness/Cell number; Lcell). Moreover, the increase rate of brightness by adding various calcium salts in comparison with Lcell of the Comparative Test Example 2 in which calcium salt aqueous dispersed solution has not been added to the medium was calculated.

[2] = tested on: filaggrin production in human skin keratinocytes (NHEK); assay: Filaggrin production test (B): calcium salt composition, fluorescent immunostaining; format: cell-based; settings: for Increase rate of brightness: unsupplemented = 100
Procedure: Then, according to Table 12, the calcium salt stock aqueous dispersed solution was added to the same medium as used in filaggrin production test (A) while pipetting so that a predetermined supplemented concentration calculated in terms of calcium ion would be obtained, and thereby a calcium salt supplemented medium was prepared.
On a culture plate of 24-wells to which the same medium as used in filaggrin production test (A) was added, human skin keratinocytes (manufactured by KURABO […] LTD., NHEK) were inoculated so that the cell density would be 3,800 cells/cm^2, and this was cultured for 3 days (37° C., 5% CO2). Then, this medium was exchanged with the calcium salt supplemented medium prepared as mentioned above and incubated for a day or two (37° C., 5% CO2). These incubated cells were stained as in the above-mentioned filaggrin production test (A), and Lcell and the increase rate of brightness were calculated.

[3] = supplemented concentration calculated in terms of calcium ion 1.78 mM
[4] = supplemented concentration calculated in terms of calcium ion 0.89 mM
[5] = calcium ion 0.09 mM, cells incubated for 1 day
[6] = calcium ion 0.09 mM, cells incubated for 2 days
[7] = calcium ion 0.89 mM, cells incubated for 1 day
[8] = calcium ion 0.89 mM, cells incubated for 2 days

## Calcium glycerophosphate
[1]; calcium ion 1.78 mM
  Increase rate of brightness: 200%
[1]; [3]
  Brightness/Cell number (Lcell): 0.19

## O=P([O-])(O)O.O=P([O-])(O)O.[Ca+2] [Calcium dihydrogen phosphate]
[1]; calcium ion 0.89 mM
  Increase rate of brightness: 180%
[1]; [4]
  Brightness/Cell number (Lcell): 0.17

## [Ca+2].[Cl-].[Cl-] [Calcium chloride]
[1]; calcium ion 1.78 mM
  Increase rate of brightness: 130%
[1]; [3]
  Brightness/Cell number (Lcell): 0.12
[2]; [5]
  Brightness/Cell number (Lcell): 0.20
  Increase rate of brightness: 83%
[2]; [6]
  Brightness/Cell number (Lcell): 0.16
  Increase rate of brightness: 89%
[2]; [7]
  Brightness/Cell number (Lcell): 0.23
  Increase rate of brightness: 96%
[2]; [8]
  Brightness/Cell number (Lcell): 0.20
  Increase rate of brightness: 110%

## O=P([O-])([O-])OP(=O)([O-])[O-].[Ca+2].[Ca+2] [Calcium pyrophosphate]
[1]; calcium ion 0.89 mM
  Increase rate of brightness: 290%
[1]; calcium ion 1.78 mM
  Increase rate of brightness: 260%
[1]; human skin keratinocytes, Table 11
  Filaggrin production compared to calcium chloride: relatively high filaggrin production as compared to that of calcium chloride
[1]; [4]
  Brightness/Cell number (Lcell): 0.28
[1]; [3]
  Brightness/Cell number (Lcell): 0.25
